Series [1] relates to Staphylococcus aureus. The series is described as follows: Bactericidal activity against Staphylococcus aureus MTCC 96. The series is classed as functional.
The subject of series [2] is Raoultella planticola. The experiment in a line: Antibacterial activity against Klebsiella planticola MTCC 530 assessed as inhibition of bacterial growth by microtiter broth dilution method. It counts as functional. On the technique in general: Dilution methods test growth across graded concentrations, often in twofold steps.
In series [3] the test system is Micrococcus luteus. The series is described as follows: Antibacterial activity against Micrococcus luteus MTCC 2470 assessed as inhibition of bacterial growth by microtiter broth dilution method. It counts as functional.
The test system of series [4] is THP-1. The experiment in a line: Cytotoxicity against human THP-1 cells assessed as cell damage at 200 uM by LDH assay. The series is classed as cell-based. The conditions noted are these: thp-1, 200 µM.
Series [5] is described as follows: Cytotoxicity against human THP-1 cells. The series is classed as cell-based.
The test system of series [6] is Bacillus subtilis. The series is described as follows: Antibacterial activity against Bacillus subtilis MTCC 121 assessed as inhibition of bacterial growth by microtiter broth dilution method. The series is classed as functional.
Series [7] relates to Escherichia coli. The experiment in a line: Antibacterial activity against Escherichia coli MTCC 739 assessed as inhibition of bacterial growth by microtiter broth dilution method. It counts as functional.
Series [8] has as its system Staphylococcus aureus. The series is described as follows: Antibacterial activity against Staphylococcus aureus MTCC 96 assessed as inhibition of bacterial growth by microtiter broth dilution method. The series is classed as functional.
The subject of series [9] is THP-1. The experiment in a line: Cytotoxicity against human THP-1 cells assessed as reduction in cell viability at 200 uM by MTT assay. It counts as cell-based. The conditions noted are these: thp-1, 200 µM. Background: Formazan colour is commonly taken as a measure of viable cells.
Series [10] deals with Bacillus subtilis. The series is described as follows: Bactericidal activity against Bacillus subtilis MTCC 121. The series is classed as functional.
In series [11] the test system is Pseudomonas aeruginosa. The experiment in a line: Antibacterial activity against Pseudomonas aeruginosa MTCC 2453 assessed as inhibition of bacterial growth by microtiter broth dilution method. The series is classed as functional.
Series [12] deals with Staphylococcus aureus. The experiment in a line: Antibacterial activity against Staphylococcus aureus MLS16 MTCC 2940 assessed as inhibition of bacterial growth by microtiter broth dilution method. It counts as functional.
Series [13] in a line: Selectivity index, ratio of CC50 for human THP-1 cells to MIC for Staphylococcus aureus MTCC 96. It counts as toxicity.
The subject of series [14] is Micrococcus luteus. The series is described as follows: Bactericidal activity against Micrococcus luteus MTCC 2470. It counts as functional.
For series [15], the system named is Pseudomonas aeruginosa. The experiment in a line: Bactericidal activity against Pseudomonas aeruginosa MTCC 2453. It counts as functional.
Series [16] relates to Staphylococcus aureus. The series is described as follows: Inhibition of biofilm formation in Staphylococcus aureus […] incubated for 24 hrs by crystal violet staining based microtiter plate method. It counts as functional, organism-based.
The subject of series [17] is Escherichia coli. The experiment in a line: Inhibition of biofilm formation in Escherichia coli MTCC 739 incubated for 24 hrs by crystal violet staining based microtiter plate method. The series is classed as functional, organism-based.
Series [18] has as its system Raoultella planticola. The experiment in a line: Inhibition of biofilm formation in Klebsiella planticola MTCC 530 incubated for 24 hrs by crystal violet staining based microtiter plate method. The series is classed as functional, organism-based.
For series [19], the system named is Bacillus subtilis. The experiment in a line: Inhibition of biofilm formation in Bacillus subtilis MTCC 121 incubated for 24 hrs by crystal violet staining based microtiter plate method. The series is classed as functional, organism-based.
Series [20] relates to Pseudomonas aeruginosa. The series is described as follows: Inhibition of biofilm formation in Pseudomonas aeruginosa MTCC 2453 incubated for 24 hrs by crystal violet staining based microtiter plate method. The series is classed as functional, organism-based.
The subject of series [21] is Micrococcus luteus. The series is described as follows: Inhibition of biofilm formation in Micrococcus luteus MTCC 2470 incubated for 24 hrs by crystal violet staining based microtiter plate method. It counts as functional, organism-based.
Series [22] concerns Candida albicans. The series is described as follows: Inhibition of biofilm formation in Candida albicans MTCC 3017 incubated for 24 hrs by crystal violet staining based microtiter plate method. It counts as functional, organism-based.
The test system of series [23] is Staphylococcus aureus. The series is described as follows: Inhibition of biofilm formation in Staphylococcus aureus MLS16 MTCC 2940 incubated for 24 hrs by crystal violet staining based microtiter plate method. It counts as functional, organism-based.

These results are taken from ChEMBL document CHEMBL4673372, “1,2,3-triazole-thiazole hybrids: Synthesis, in vitro antimicrobial activity and antibiofilm studies” (Bioorg Med Chem Lett, 2021).

One may read the MBC as the lowest tested concentration that kills the bacteria rather than only halting them. Higher therefore signals weaker bactericidal potency. For orientation: MIC means the smallest concentration in the dilution series that meets the test's criterion for growth inhibition. By CC50 is commonly meant the concentration at which the toxic effect on the cells reaches its halfway point. A low value points to greater toxicity to the cells.

The structures appear in SMILES notation. Values after ≈ are worked out from the molar mass of the structure shown. A value given as a limit tells only on which side of the number the result lay.

Take `COc1ccc(-n2cc(COc3ccc(/C=N/Nc4nc(-c5ccc(-c6ccccc6)cc5)cs4)cc3)nn2)cc1`: the minimum bactericidal concentration (MBC) in series [1] and in series [10] was 27.9 µM (≈ 15.6 µg/mL) in each case. The MIC is more than 224 µM in series [2]; more than 224 µM in [3]; 13.9 µM (≈ 7.77 µg/mL) in series [6]; more than 224 µM in series [7]; 13.9 µM (≈ 7.77 µg/mL) in series [8]; more than 224 µM in [11]. The minimal inhibitory concentration (MIC) in series [12] was more than 224 µM. In addition, the Activity result in [4] and in series [9] was “Toxic” in each case. This compound had a CC50 in [5] of 35.8 µM. For the same compound, in [13], the selectivity ratio amounted to 2.58.

Take `COc1ccc(-n2cc(COc3ccc(/C=N/Nc4nc(-c5ccc(Br)cc5)cs4)cc3)nn2)cc1`: the minimal inhibitory concentration (MIC) in [2] was more than 223 µM; in [3], 13.8 µM (≈ 7.75 µg/mL); in series [6], 13.8 µM (≈ 7.75 µg/mL); in series [7], more than 223 µM; in series [8], more than 223 µM; in [11], 27.7 µM (≈ 15.6 µg/mL). For the same compound, the minimum inhibitory concentration (MIC) in series [12] was more than 223 µM. For the same compound, the Activity entry in series [4] and in [9] was “Toxic” each time. In series [5], the CC50 was found to be 35.6 µM. For the same compound, the MBC in series [10] is 55.5 µM (≈ 31.2 µg/mL); in [14], 27.7 µM (≈ 15.6 µg/mL); in series [15], 111 µM (≈ 62.4 µg/mL). Also, the selectivity ratio in series [13] is 0.16.

For `CCOc1cc(Br)cc2cc(-c3csc(N/N=C/c4ccc(OCc5cn(-c6ccc(OC)cc6)nn5)cc4)n3)c(=O)oc12`, the IC50 entry in [16], in series [17], in series [18], in series [19], in [20] and in series [21] was “Not Active” throughout. Besides, the IC50 entry in [22] and in [23] was “Not Active” each time. Further, the minimal inhibitory concentration (MIC) in series [2], in [3], in series [6], in series [7], in [8] and in series [11] was more than 186 µM in each case. Also, the MIC in series [12] is more than 186 µM.

In turn, `COc1ccc(-n2cc(COc3ccc(/C=N/Nc4nc(-c5ccc(Cl)cc5)cs4)cc3)nn2)cc1` came in with an MBC in series [1] of 30.2 µM (≈ 15.6 µg/mL). The minimum inhibitory concentration (MIC) in series [2] was more than 242 µM; in series [3] it was more than 242 µM; in series [6], more than 242 µM; in [7] it was more than 242 µM; in series [8], 15 µM (≈ 7.76 µg/mL); in series [11], more than 242 µM. In addition, in series [12], the minimal inhibitory concentration (MIC) is more than 242 µM. The Activity result in series [4] and in series [9] was “Toxic” each time. The same compound displayed a CC50 in series [5] of 38.7 µM. Besides, the selectivity ratio in series [13] was 2.58.

Consider `COc1ccc(-n2cc(COc3ccc(/C=N/Nc4nc(-c5ccc(F)cc5)cs4)cc3)nn2)cc1`, for which the MIC in series [2], in series [3], in [6], in series [7], in [8] and in [11] was more than 223 µM each time. The MIC in [12] was more than 223 µM.

On to `COc1ccc(-n2cc(COc3ccc(/C=N/Nc4nc(-c5ccc([N+](=O)[O-])cc5)cs4)cc3)nn2)cc1`, for which the minimum bactericidal concentration (MBC) in [1] was 29.5 µM (≈ 15.6 µg/mL); in series [10] it was 29.5 µM (≈ 15.6 µg/mL); in series [14], 29.5 µM (≈ 15.6 µg/mL); in series [15], 59.1 µM (≈ 31.2 µg/mL). The minimum inhibitory concentration (MIC) in [2] was more than 237 µM; in series [3], 14.7 µM (≈ 7.76 µg/mL); in series [6], 14.7 µM (≈ 7.76 µg/mL); in series [7] it was more than 237 µM; in [8] it was 14.7 µM (≈ 7.76 µg/mL); in series [11] it was 14.7 µM (≈ 7.76 µg/mL). In addition, in [12], the MIC was more than 237 µM. Further, the Activity entry in series [4] and in series [9] was “Toxic” throughout. Moreover, the midpoint of cytotoxicity in series [5], the CC50, lay at 37.9 µM. The selectivity ratio in series [13] stood at 2.58.

Consider `COc1ccc(-n2cc(COc3ccc(/C=N/Nc4nc(-c5cc6cc(Cl)cc(Cl)c6oc5=O)cs4)cc3)nn2)cc1`, for which the IC50 result in series [16], in [17], in series [18], in [19], in [20] and in series [21] was “Not Active” each time. Further, the IC50 result in series [22] and in [23] was “Not Active” in each case. The MIC in [2], in series [3], in series [6], in [7], in series [8] and in series [11] was more than 202 µM throughout. In addition, the MIC in series [12] is more than 202 µM.

For `COc1ccc(-n2cc(COc3ccc(/C=N/Nc4nc(-c5ccccc5)cs4)cc3)nn2)cc1`, the minimal inhibitory concentration (MIC) in series [2], in [3], in series [6], in [7], in series [8] and in [11] was more than 259 µM each time. Moreover, the MIC in series [12] was more than 259 µM.

For the compound `CCOc1cccc2cc(-c3csc(N/N=C/c4ccc(OCc5cn(-c6ccc(OC)cc6)nn5)cc4)n3)c(=O)oc12`, the IC50 result in [16], in series [17], in series [18], in series [19], in series [20] and in [21] was “Not Active” in each case. Further, the IC50 result in series [22] and in series [23] was “Not Active” in each case. Also, the MIC in [2], in series [3], in series [6], in series [7], in series [8] and in series [11] was more than 210 µM in each case. In [12], the minimal inhibitory concentration (MIC) was more than 210 µM.

Regarding `COc1ccc(-c2csc(N/N=C/c3ccc(OCc4cn(-c5ccc(OC)cc5)nn4)cc3)n2)cc1`, the minimal bactericidal concentration (MBC) in series [1] and in series [10] was 30.4 µM (≈ 15.6 µg/mL) each time. Besides, the minimum inhibitory concentration (MIC) in series [2] is more than 244 µM; in series [3], more than 244 µM; in [6] it was 7.6 µM (≈ 3.9 µg/mL); in series [7], more than 244 µM; in series [8], 7.6 µM (≈ 3.9 µg/mL); in series [11] it was more than 244 µM. The minimal inhibitory concentration (MIC) in series [12] is more than 244 µM. Moreover, the Activity result in [4] and in series [9] was “Toxic” each time. The compound further had a CC50 in series [5] of 39 µM. In addition, the selectivity ratio in series [13] stood at 5.13.

In the case of `COc1ccc(-n2cc(COc3ccc(/C=N/Nc4nc(-c5ccc(C)cc5)cs4)cc3)nn2)cc1`, the minimal bactericidal concentration (MBC) in series [1] is 31.4 µM (≈ 15.6 µg/mL). In addition, the MIC is more than 252 µM in series [2]; more than 252 µM in [3]; more than 252 µM in series [6]; more than 252 µM in series [7]; 15.7 µM (≈ 7.8 µg/mL) in [8]; more than 252 µM in series [11]. Moreover, the MIC in series [12] was more than 252 µM. Also, the Activity result in series [4] and in [9] was “Toxic” in each case. In [5], this compound returned a CC50 of 40.3 µM. In series [13], the selectivity ratio turned out to be 2.57.
